Assay results taken from PubChem BioAssay (NCI).
“And” between values parts separate entries of the source, which are not always exact repeats. Equal values may be shown once.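 Compound exposure: 48 hours, 5 concentrations, 96-well plates. Here, GI50 denotes the concentration required for 50% inhibition of growth. The concentration for full growth arrest is given as TGI.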

Each compound was assayed on SK-MEL-5 melanoma (assay: growth of human tumour cells (NCI), 48 h).

| SMILES | GI50 | TGI |
| --- | --- | --- |
| Cc1cc(I)cc(CN(C)CCCCN2CCCCC2)c1O | 3.33 µM | 10.7 µM |
| Cc1ccc(C(=O)/C(=C/c2ccc([N+](=O)[O-])cc2)SCc2ccc(Cl)cc2)cc1 | 2.34 µM | 6.43 µM |
| O=C(Nc1ccc(Cl)c(Cl)c1)Nc1ccc(Cl)c(Cl)c1 | 1.74 µM and 1.77 µM | 3.35 µM and 3.18 µM |
| C#Cc1ccc(-n2c(/C=C/c3ccc(C(F)(F)F)cc3)nc3ncccc3c2=O)cc1 | 1.49 µM | 2.87 µM |
| COc1cc(/C=N/NC(=O)c2ccc(C(F)(F)F)nc2Nc2ccc(Cl)cc2C)ccc1O | 1.41 µM | 3.28 µM |
| O=C(N/C(=C\c1ccc(/C=C(\NC(=O)c2ccccc2)c2nc3cc([N+](=O)[O-])ccc3[nH]2)cc1)c1nc2cc([N+](=O)[O-])ccc2[nH]1)c1ccccc1 |  | > 100 µM |
| COc1ccc(C(=O)Cn2c(C(=O)c3ccccc3)nc(-c3ccc(OC)cc3)c2-c2ccc(OC)cc2)cc1 | > 100 µM | > 100 µM |
| O=C1c2ccccc2C2C1N2C(=O)C(F)(F)F (centres undefined) |  | > 100 µM |
| CCOC(=O)[C@]1(OC(C)=O)C[C@H](OC(C)=O)[C@@H](C(F)COP(=O)(OCc2ccccc2)OCc2ccccc2)O1 (some centres undefined) |  | > 100 µM |
| c1ccc2cc(-c3cc(-c4cc(-c5ccc6ccccc6c5)on4)no3)ccc2c1 |  | > 100 µM |
| CC1(c2ccc(F)cc2)C(C#N)C(=O)NC(=O)C1C#N (centres undefined) |  | > 100 µM |
| O=C1C2C(C(=O)N1OS(=O)(=O)c1ccccc1)N(Cc1ccccc1)C(=O)N2Cc1ccccc1 (centres undefined) |  | > 100 µM |
| COc1cc(-c2nn(-c3ccc(NC(=O)c4ccc(Cl)c(C(F)(F)F)c4)cc3)cc2-c2ccncc2)ccc1Cl | 1.66 µM | 3.15 µM |
| CN(C)CC[N+]1=Nc2cccc3cccc(c23)N1 |  | > 100 µM |
| COc1ccc2c(C3=C(c4cn(C)c5ccccc45)C(=O)NC3=O)cn(C)c2c1 | 0.0899 µM | 2.57 µM |
| Cc1ccc(N=Nc2ccc(N(CCC#N)CCC#N)cc2C)c(Br)c1 |  | 56.5 µM |
| COc1ccc2c3c1C(=O)CCCC3CO2 (centres undefined) |  | > 100 µM |

What follows are compounds tested on UO-31 renal (assay: growth of human tumour cells (NCI), 48 h).

| SMILES | TGI | GI50 |
| --- | --- | --- |
| CCCCC(=O)OCC(=O)[C@]1(O)Cc2c(O)c3c(c(O)c2[C@@H](OC2CC(NC(=O)C(F)(F)F)C(O)C(C)O2)C1)C(=O)c1c(OC)cccc1C3=O (some centres undefined) | 3.45 µM |  |
| C[C@]12CC[C@H](O)CC1=CC[C@@H]1C2CC[C@]2(C)C(=O)N(N)C(=O)CC12 (some centres undefined) | > 100 µM |  |
| C=C(CN1CCN(c2ccc(Cl)cc2F)CC1)c1ccc(C(=O)Nc2ccccc2N)cc1 | > 25.1 µM | 1.1 µM |
| CC(C)=CC(=O)C1c2cccc(O)c2C(=O)c2c(O)cc(C)cc21 (centres undefined) | 3.74 µM |  |
| COC(CN1C(=O)c2cccc3cccc(c23)C1=O)OC | > 100 µM |  |
| O=C(Nc1ccccc1)NS(=O)(=O)c1ccc(-n2nc3c(c2-c2cccs2)Cc2ccccc2-3)cc1 | > 100 µM | 32.3 µM |
| O=C1C=C(Cl)C(=O)C(c2ccc(Cl)cc2)=C1 | 28.5 µM |  |
| Cc1ccc2c(=O)cc(-c3ccc(F)cc3)[nH]c2n1 | > 100 µM |  |
| CCOc1ccc(NC(=O)C(=O)CC(=O)c2c[n+](=O)c3cc(C)c(C)cc3n2[O-])cc1 | > 100 µM |  |
| Cn1cc(C2=C(c3cn(C)c4ncccc34)C(=O)NC2=O)c2ccccc21 | > 19.8 µM | 5.68 µM |
| O=C1C(Cl)=C(Nc2cccc(Cl)c2)C(=O)N1Cc1ccc(Cl)cc1Cl | 3.45 µM | 0.431 µM |
| O=C(/C=C/C12c3ccccc3C(c3ccccc31)C1C(=O)NC(=O)C12)c1ccncc1 (centres undefined) | 4.8 µM | 1.48 µM |
| CC12CCC(O)CC1CCC1C2CCC2(C)C(C3=CC(=O)OC3)CCC12O (centres undefined) | 8.23 µM |  |
| COc1ccc2c(c1)/C(=C/c1c(C)nc3sc(C)nn13)C(=O)N2 | > 100 µM | 5.23 µM |
| Cc1cc(I)cc(CN(C)CCCCN2CCCCC2)c1O | 36.6 µM | 14.2 µM |
| Cc1ccc(C(=O)/C(=C/c2ccc([N+](=O)[O-])cc2)SCc2ccc(Cl)cc2)cc1 | 2.66 µM | 1.2 µM |

| SMILES | TGI | GI50 |
| --- | --- | --- |
| O=C(Nc1ccc(Cl)c(Cl)c1)Nc1ccc(Cl)c(Cl)c1 | 7.78 µM and 8.91 µM | 2.25 µM and 2.74 µM |
| C#Cc1ccc(-n2c(/C=C/c3ccc(C(F)(F)F)cc3)nc3ncccc3c2=O)cc1 | 3.67 µM | 1.43 µM |
| COc1cc(/C=N/NC(=O)c2ccc(C(F)(F)F)nc2Nc2ccc(Cl)cc2C)ccc1O | 7.76 µM | 1.39 µM |
| O=C(N/C(=C\c1ccc(/C=C(\NC(=O)c2ccccc2)c2nc3cc([N+](=O)[O-])ccc3[nH]2)cc1)c1nc2cc([N+](=O)[O-])ccc2[nH]1)c1ccccc1 | > 100 µM |  |
| COc1ccc(C(=O)Cn2c(C(=O)c3ccccc3)nc(-c3ccc(OC)cc3)c2-c2ccc(OC)cc2)cc1 | > 100 µM | > 100 µM |
| O=C1c2ccccc2C2C1N2C(=O)C(F)(F)F (centres undefined) | > 100 µM |  |
| CCOC(=O)[C@]1(OC(C)=O)C[C@H](OC(C)=O)[C@@H](C(F)COP(=O)(OCc2ccccc2)OCc2ccccc2)O1 (some centres undefined) | 43.5 µM and > 100 µM | 21.6 µM and > 100 µM |
| c1ccc2cc(-c3cc(-c4cc(-c5ccc6ccccc6c5)on4)no3)ccc2c1 | > 100 µM |  |
| CC1(c2ccc(F)cc2)C(C#N)C(=O)NC(=O)C1C#N (centres undefined) | > 100 µM |  |
| O=C1C2C(C(=O)N1OS(=O)(=O)c1ccccc1)N(Cc1ccccc1)C(=O)N2Cc1ccccc1 (centres undefined) | > 100 µM |  |
| COc1cc(-c2nn(-c3ccc(NC(=O)c4ccc(Cl)c(C(F)(F)F)c4)cc3)cc2-c2ccncc2)ccc1Cl | 5.46 µM | 1.65 µM |
| CN(C)CC[N+]1=Nc2cccc3cccc(c23)N1 | > 60.9 µM |  |
| COc1ccc2c(C3=C(c4cn(C)c5ccccc45)C(=O)NC3=O)cn(C)c2c1 | > 25 µM | 3.69 µM |
| Cc1ccc(N=Nc2ccc(N(CCC#N)CCC#N)cc2C)c(Br)c1 | > 100 µM |  |
| COc1ccc2c3c1C(=O)CCCC3CO2 (centres undefined) | > 100 µM |  |

Each compound was assayed on M14 melanoma (assay: growth of human tumour cells (NCI), 48 h).

| SMILES | TGI [µM] | GI50 |
| --- | --- | --- |
| CCCCC(=O)OCC(=O)[C@]1(O)Cc2c(O)c3c(c(O)c2[C@@H](OC2CC(NC(=O)C(F)(F)F)C(O)C(C)O2)C1)C(=O)c1c(OC)cccc1C3=O (some centres undefined) | 8.62 |  |
| C[C@]12CC[C@H](O)CC1=CC[C@@H]1C2CC[C@]2(C)C(=O)N(N)C(=O)CC12 (some centres undefined) | > 100 |  |
| C=C(CN1CCN(c2ccc(Cl)cc2F)CC1)c1ccc(C(=O)Nc2ccccc2N)cc1 |  | 2.03 µM |
| CC(C)=CC(=O)C1c2cccc(O)c2C(=O)c2c(O)cc(C)cc21 (centres undefined) | 10.1 |  |
| COC(CN1C(=O)c2cccc3cccc(c23)C1=O)OC | > 100 |  |
| O=C(Nc1ccccc1)NS(=O)(=O)c1ccc(-n2nc3c(c2-c2cccs2)Cc2ccccc2-3)cc1 | 47 | 25 µM |
| O=C1C=C(Cl)C(=O)C(c2ccc(Cl)cc2)=C1 | 32.2 |  |
| Cc1ccc2c(=O)cc(-c3ccc(F)cc3)[nH]c2n1 | > 100 |  |
| CCOc1ccc(NC(=O)C(=O)CC(=O)c2c[n+](=O)c3cc(C)c(C)cc3n2[O-])cc1 | > 100 |  |
| Cn1cc(C2=C(c3cn(C)c4ncccc34)C(=O)NC2=O)c2ccccc21 | > 25 | 9.74 µM |
| O=C1C(Cl)=C(Nc2cccc(Cl)c2)C(=O)N1Cc1ccc(Cl)cc1Cl | 21.9 | 4.87 µM |
| O=C(/C=C/C12c3ccccc3C(c3ccccc31)C1C(=O)NC(=O)C12)c1ccncc1 (centres undefined) | 7.65 | 2.44 µM |
| CC12CCC(O)CC1CCC1C2CCC2(C)C(C3=CC(=O)OC3)CCC12O (centres undefined) | 19 |  |
| COc1ccc2c(c1)/C(=C/c1c(C)nc3sc(C)nn13)C(=O)N2 | > 27.9 | 1.79 µM |
| Cc1cc(I)cc(CN(C)CCCCN2CCCCC2)c1O | 12.4 | 3.31 µM |
| Cc1ccc(C(=O)/C(=C/c2ccc([N+](=O)[O-])cc2)SCc2ccc(Cl)cc2)cc1 | 19.4 | 2.52 µM |
| O=C(Nc1ccc(Cl)c(Cl)c1)Nc1ccc(Cl)c(Cl)c1 | 9.59 | 3.1 µM |
| C#Cc1ccc(-n2c(/C=C/c3ccc(C(F)(F)F)cc3)nc3ncccc3c2=O)cc1 | 4.27 | 2.07 µM |
| COc1cc(/C=N/NC(=O)c2ccc(C(F)(F)F)nc2Nc2ccc(Cl)cc2C)ccc1O | 14.6 | 3.76 µM |
| O=C(N/C(=C\c1ccc(/C=C(\NC(=O)c2ccccc2)c2nc3cc([N+](=O)[O-])ccc3[nH]2)cc1)c1nc2cc([N+](=O)[O-])ccc2[nH]1)c1ccccc1 | > 100 |  |
| COc1ccc(C(=O)Cn2c(C(=O)c3ccccc3)nc(-c3ccc(OC)cc3)c2-c2ccc(OC)cc2)cc1 | > 100 | > 100 µM |
| O=C1c2ccccc2C2C1N2C(=O)C(F)(F)F (centres undefined) | > 100 |  |
| CCOC(=O)[C@]1(OC(C)=O)C[C@H](OC(C)=O)[C@@H](C(F)COP(=O)(OCc2ccccc2)OCc2ccccc2)O1 (some centres undefined) | > 100 | 49.4 µM and > 100 µM |
| c1ccc2cc(-c3cc(-c4cc(-c5ccc6ccccc6c5)on4)no3)ccc2c1 | > 100 |  |
| CC1(c2ccc(F)cc2)C(C#N)C(=O)NC(=O)C1C#N (centres undefined) | > 100 |  |
| O=C1C2C(C(=O)N1OS(=O)(=O)c1ccccc1)N(Cc1ccccc1)C(=O)N2Cc1ccccc1 (centres undefined) | > 100 |  |
| COc1cc(-c2nn(-c3ccc(NC(=O)c4ccc(Cl)c(C(F)(F)F)c4)cc3)cc2-c2ccncc2)ccc1Cl | 8.26 | 2.51 µM |
| CN(C)CC[N+]1=Nc2cccc3cccc(c23)N1 | > 100 |  |
| COc1ccc2c(C3=C(c4cn(C)c5ccccc45)C(=O)NC3=O)cn(C)c2c1 | > 25 | 0.0999 µM |
